Measured values from patent US10342799B2, “Compositions and methods for prophylaxis and therapy for Meniere's disease” (priority 2013, dated 2019).

Test system: patients diagnosed with active definite MD (Ménière's vertigo attacks)
Assay: Retrospective and prospective review of active definite Meniere's disease patients treated with lamotrigine (vertigo attacks, DHI, side effects)
Type: in vivo, human patients
Description: Population. A retrospective and prospective review was performed on patients who were older than 18 years old, diagnosed with active definite MD at the Dent Dizziness, Balance and Tinnitus Center and treated with lamotrigine. Definite MD is defined as two or more episodes of vertigo that last for ≥20 minutes with documented hearing loss on at least one occasion, tinnitus and/or aural fullness, and other causes excluded. Active MD status requires patients to experience at least three vertigo attacks during the three months prior to treatment.
Clinical data. Data collected included demographic information, history of MD, prior medical treatment, clinical diagnosis, clinical presentation, stage of the disease, and frequency of Ménière's vertigo attacks prior to and after treatment. The staging of MD was based on the four-tone average of the pure-tone thresholds at 0.5, 1, 2 and 3 kHz of the worst audiogram during the six months before treatment. The questionnaires used were the Dizziness Handicap Inventory (DHI) and the Center's Dizziness Questionnaire. Current or past history of anxiety/depression, migraine problems, and use of anti-anxiety medication were also analyzed.
Outcome variable. The primary outcome measure was the reduction of Ménière's vertigo attacks at both three months after lamotrigine initiation (primarily the titration period) and three months after treatment at maintenance dosage. Secondary outcome measures included DHI scores and patient reports of clinical improvement. Data were confirmed by review of physicians' notes, vestibular and audiogram testing results, and supporting data. Means and standard deviations (SDs) were calculated for all continuous variables and proportions for all categorical variables. The primary research questions were whether or not lamotrigine led to a reduction of Ménière's vertigo attacks and whether or not lamotrigine led to improvement in quality of life for MD patients.
Statistical analysis. The overall difference in Meniere's vertigo attacks among 3 months pre-treatment, 3 months of titration, and 3 months of maintenance treatment was evaluated by Friedman's test, which is a nonparametric test for treatment differences in a randomized complete block design. The Wilcoxon signed rank sum test, which is the nonparametric version of a paired sample t-test, was used for the pairwise comparisons of Meniere's vertigo attacks from the three different time periods as well as DHI before and after treatment. Fisher's exact test was used to evaluate whether treatment effectiveness was affected by migraine or anxiety comorbidities. For all of these statistical tests, the tests were two-sided, and the level of significance was set to 0.05. Differences were considered significant if the p-value was less than 0.05.
Lamotrigine titration. All 45 patients began a titration of lamotrigine of 25 mg BID for two weeks to 50 mg BID for two weeks. Final maintenance dosages varied between 25 mg BID and 200 mg BID due to individual patient tolerance and response; 29 patients were on either 100 mg BID or 150 mg BID maintenance dosages (64%). There was one patient who was lost to follow-up. There were four patients who discontinued lamotrigine due to side effects: one experienced stomachaches and diarrhea, one complained of hallucinations, and two developed rashes.

[1] = mean (SD), three months prior to treatment: 12.7 (SD 11.6)
[2] = number of patients, value in brackets

With `Nc1nnc(-c2cccc(Cl)c2Cl)c(N)n1` [Lamotrigine, 6-(2,3-Dichlorophenyl)-1,2,4-triazine-3,5-diamine] the “vertigo attack reduction and remission: influence of migraine comorbidity” value (Fisher's exact test, p=0.414) was “not affected”, the “vertigo attack reduction and remission: influence of anxiety/depression comorbidity” value (Fisher's exact test, p=1.000) was “not affected” and the “patients who reported improvement and had anxiety/depression disorder” value (among the 38 improved patients) was 28 patients. For the same molecule, the “patients who reported improvement and had migraine” value (among the 38 improved patients) was 20 patients, the “mean post-treatment DHI score” value (mean (SD), prior treatment DHI 47.6 (SD 19.6)) was 28.6 (SD 20.9) and the “mean number of vertigo attacks after three months of maintenance dosage” value [1] was 1.9 (SD 4.6). The “mean number of vertigo attacks three months after initiation (primarily the titration period)” value [1] was 4.5 (SD 6.2), the “Side effect, MD with migraine” value (number of patients) was 1 and the “Side effect, MD without migraine” value (number of patients) was 3. The “Side effect, Total” value (number of patients) was 4, the “Vertigo attack free, MD with migraine” value (number of patients) was 11 and the “Vertigo attack free, MD without migraine” value (number of patients) was 10. For the same molecule, the “Vertigo attack free, Total” value (number of patients) was 21, the “Vertigo reduced, MD with migraine” value (number of patients) was 9 and the “Vertigo reduced, MD without migraine” value (number of patients) was 8. For the same molecule, the “Vertigo reduced, Total” value (number of patients) was 17, the “Vertigo unchanged, MD with migraine” value (number of patients) was 1 (1) and the “Vertigo unchanged, MD without migraine” value (number of patients) was 1 (1). The “Vertigo unchanged, Total” value (number of patients) was 2, the “Side effect, MD with anxiety” value [2] was 3 and the “Side effect, MD without anxiety” value [2] was 1. For the same molecule, the “Vertigo attack free, MD with anxiety” value [2] was 15, the “Vertigo attack free, MD without anxiety” value [2] was 6 and the “Vertigo reduced, MD with anxiety” value [2] was 13. For the same molecule, the “Vertigo reduced, MD without anxiety” value [2] was 4, the “Vertigo unchanged, MD with anxiety” value [2] was 1 (1) and the “Vertigo unchanged, MD without anxiety” value [2] was 1 (1). For the same molecule, the “patients with complete resolution of Ménière's vertigo attacks during the three month maintenance period” value (of 38 improved patients) was 21 patients, the “patients who discontinued lamotrigine due to side effects” value (of 45 patients) was “four” and the “patients who discontinued with hallucinations” value (of 45 patients) was “one”. For the same molecule, the “patients who discontinued with rashes” value (of 45 patients) was “two”, the “patients who discontinued with stomachaches and diarrhea” value (of 45 patients) was “one” and the “proportion of patients who reported an improvement in Ménière's vertigo attacks” value (out of all 45 study patients) was 84%. For the same molecule, the “patients who reported an improvement in Ménière's vertigo attacks with lamotrigine treatment” value (out of all 45 study patients, maintenance 25-200 mg BID) was 38 patients, the “post-DHI score less than pre-DHI score, on average” value (p=0.001) was 19 points and the “vertigo attacks during 3 months of maintenance relative to 3 months of titration” value (p=0.04) was “significantly fewer”. The “vertigo attacks during the two treatment periods compared to the 3 months prior to treatment” value (titration and maintenance periods, p<0.001, p<0.001, Wilcoxon signed rank) was “significantly fewer”.
